Assay: Net charge and isoelectric point of peptide
Format: physicochemical
Details: pH 7
Excerpt: The peptide may be purified. For example, the peptide may be lyophilized. […] Other peptides are within the scope of the disclosure.
Exemplary peptides having a charge of +5 to +9 include […](d)[…], […](d)[…], and […](d)[…]. In other embodiments, the purified peptide may be substantially neutral. […] Net charge may be selected by peptide design. Design of electrostatic charge in the peptide hydrogel may allow control of charge interaction with cell membrane and proteins.

## VEVSVSVEV(d)PPTEVSVEVEV
  net charge: net negative charge

Source: patent publication US20240269067A1 (GEL4MED, INC., priority 2020, published 2024)
